Test results reported in patent publication US8501946B2 (Glaxo Group Limited, priority 2009, dated 2013).

Biological target: T1, human recombinant P2X7 receptors (Homo sapiens, UniProt Q99572)
T1 construct: expressed in transfected cells
T1 sequence (Q99572 1-595): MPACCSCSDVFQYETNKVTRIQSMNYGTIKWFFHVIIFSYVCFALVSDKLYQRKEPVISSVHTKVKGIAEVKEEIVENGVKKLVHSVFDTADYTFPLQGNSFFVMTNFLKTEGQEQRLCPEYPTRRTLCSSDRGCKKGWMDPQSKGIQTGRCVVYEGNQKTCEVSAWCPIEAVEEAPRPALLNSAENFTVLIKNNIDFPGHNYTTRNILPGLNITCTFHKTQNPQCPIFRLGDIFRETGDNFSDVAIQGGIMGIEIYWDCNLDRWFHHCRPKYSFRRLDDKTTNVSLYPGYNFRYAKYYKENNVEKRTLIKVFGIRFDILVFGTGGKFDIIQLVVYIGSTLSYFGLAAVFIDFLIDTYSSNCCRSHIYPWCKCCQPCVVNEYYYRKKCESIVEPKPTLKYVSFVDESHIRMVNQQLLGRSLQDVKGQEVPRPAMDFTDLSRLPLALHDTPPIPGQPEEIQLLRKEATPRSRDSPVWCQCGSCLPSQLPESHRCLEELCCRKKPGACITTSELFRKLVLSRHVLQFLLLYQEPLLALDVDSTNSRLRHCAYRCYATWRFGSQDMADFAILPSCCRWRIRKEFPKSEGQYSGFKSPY
Assay: Ethidium Accumulation Assay 1 (HEK293 cells, ATP-induced ethidium uptake)
Assay type: cell-based
Conditions: HEK293 cells expressing human P2X7; 1 mM ATP; sometimes mean of more than one measurement; read-out: Assay 1 (antagonist pIC50 for blocking ATP responses) (converted)
Protocol: Eithidium Accumulation Assay 1
Studies were performed using NaCl assay buffer of the following composition: 140 mM NaCl, 10 mM HEPES [4-(2-hydroxyethyl)-1-piperazine-1-ethanesulfonic acid], 5 mM N-methyl-D-glucamine, 5.6 mM KCl, 10 mM D-glucose, 0.5 mM CaCl2 (pH 7.4).
Human Embryonic Kidney (HEK) 293 cells, stably expressing human recombinant P2X7 receptors, were grown in poly-D-lysine pretreated 96 well plates for 18-24 hours.
The cells were washed twice with 350 μl of the assay buffer, before addition of 50 μl of the assay buffer containing the putative P2X7 receptor antagonist compound. (A small amount of dimethyl sulfoxide, for initially dissolving the compound, is optionally used and present in this 50 μl test compound sample.) The cells were then incubated at room temperature (19-21° C.) for 30 min before addition of ATP and ethidium (100 μM final assay concentration). The ATP concentration was chosen to be close to the EC80 for the receptor type and was 1 mM for studies on the human P2X7 receptor. Incubations were continued for 8 or 16 min and were terminated by addition of 25 μl of 1.3M sucrose containing 4 mM of the P2X7 receptor antagonist Reactive Black 5 (Aldrich). […] Antagonist pIC50 values for blocking ATP responses were determined using iterative curve fitting techniques.

SMILES | IC50 [µM]
Cn1cccc1-c1nnc2n1CCN(C(=O)c1ccc(F)cc1Cl)C2 [Example 82, -[(2-chloro-4-fluorophenyl)carbonyl]-3-(1-methyl-1H-pyrrol-2-yl)-5,6,7,8-tetrahydro[1,2,4]triazolo [4,3-a]pyrazine] | < 0.1
COc1cccc(-c2nnc3n2CCN(C(=O)c2ccc(F)cc2Cl)C3)c1 [Example 125, 7-[(2-chloro-4-fluorophenyl)carbonyl]-3-[3-(methyloxy)phenyl]-5,6,7,8-tetrahydro[1,2,4]triazolo[4,3-a]pyrazine] | < 0.1
O=C(c1ccc(Cl)cc1C(F)(F)F)N1CCn2c(nnc2-c2cnccn2)C1 [Example 142, 7-{[4-chloro-2-(trifluoromethyl)phenyl]carbonyl}-3-(2-pyrazinyl)-5,6,7,8-tetrahydro[1,2,4]triazolo[4,3-a]pyrazine] | < 0.1
O=C(c1ccc(Cl)c(F)c1Cl)N1CCn2c(nnc2-c2ccncn2)C1 [Example 112, 7-[(2,4-Dichloro-3-fluorophenyl)carbonyl]-3-(4-pyrimidinyl)-5,6,7,8-tetrahydro[1,2,4]triazolo[4,3-a]pyrazine] | < 0.1
O=C(c1c(F)cccc1Cl)N1CCn2c(nnc2-c2ccccn2)C1 [Example 79, 7-[(2-chloro-6-fluorophenyl)carbonyl]-3-(2-pyridinyl)-5,6,7,8-tetrahydro[1,2,4]triazolo [4,3-a]pyrazine] | < 0.501
O=C(c1cccc(Cl)c1Cl)N1CCn2c(nnc2-c2ccncn2)C1 [Example 62, 7-[(2,3-dichlorophenyl)carbonyl]-3-(4-pyrimdiinyl)-5,6,7,8-tetrahydro[1,2,4]triazolo [4,3-a]pyrazine] | < 0.01
O=C(c1cccc(C(F)(F)F)c1Cl)N1CCn2c(nnc2N2CCCCC2)C1 [Example 23, 7-{[2-chloro-3-(trifluoromethyl)phenyl]carbonyl}-3-(1-piperidinyl)-5,6,7,8-tetrahydro[1,2,4]triazolo [4,3-a]pyrazine] | < 0.1
O=C(c1ccc(F)cc1Cl)N1CCn2c(nnc2-c2ccccc2O)C1 [Example 128, 2-{7-[(2-chloro-4-fluorophenyl)carbonyl]-5,6,7,8-tetrahydro[1,2,4]triazolo[4,3-a]pyrazin-3-yl}phenol] | < 0.501
Cc1cc(F)ccc1C(=O)N1CCn2c(nnc2-c2cnccn2)C1 [Example 107, 7-[(4-fluoro-2-methylphenyl)carbonyl]-3-(2-pyrazinyl)-5,6,7,8-tetrahydro[1,2,4]triazolo [4,3-a]pyrazine] | < 0.1
O=C(c1ccc(Cl)cc1Cl)N1CCn2c(nnc2-c2ccccn2)C1 [Example 76, 7-[(2,4-dichlorophenyl)carbonyl]-3-(2-pyridinyl)-5,6,7,8-tetrahydro[1,2,4]triazolo [4,3-a]pyrazine] | < 0.01
O=C(c1ccc(F)cc1Cl)N1CCn2c(nnc2-c2ncc(F)cc2F)C1 [Example 84, 7-[(2-chloro-4-fluorophenyl)carbonyl]-3-(3,5-difluoro-2-pyridinyl)-5,6,7,8-tetrahydro[1,2,4]triazolo [4,3-a]pyrazine] | < 0.1
O=C(c1ccc(F)cc1Cl)N1CCn2c(nnc2-c2cccc(F)c2F)C1 [Example 131, 7-[(2-chloro-4-fluorophenyl)carbonyl]-3-(2,3-difluorophenyl)-5,6,7,8-tetrahydro[1,2,4]triazolo[4,3-a]pyrazine] | < 0.1
O=C(c1ccc(F)cc1Cl)N1CCn2c(nnc2-c2cnccn2)C1 [Example 85, 7-[(2-chloro-4-fluorophenyl)carbonyl]-3-(2-pyrazinyl)-5,6,7,8-tetrahydro[1,2,4]triazolo[4,3-a]pyrazine] | < 0.01
O=C(c1cccc(C(F)(F)F)c1Cl)N1CCn2c(nnc2C2CCCC2)C1 [Example 139, 7-{[2-chloro-3-(trifluoromethyl)phenyl]carbonyl}-3-cyclopentyl-5,6,7,8-tetrahydro[1,2,4]triazolo[4,3-a]pyrazine] | < 0.1
O=C(c1ccc(F)cc1C(F)(F)F)N1CCn2c(nnc2-c2ccccn2)C1 [Example 94, 7-{[4-fluoro-2-(trifluoromethyl)phenyl]carbonyl}-3-(2-pyridinyl)-5,6,7,8-tetrahydro[1,2,4]triazolo [4,3-a]pyrazine] | < 0.1
Cn1cccc1-c1nnc2n1CCN(C(=O)c1cccc(C(F)(F)F)c1Cl)C2 [Example 29, 7-{[2-chloro-3-(trifluoromethyl)phenyl]carbonyl}-3-(1-methyl-1H-pyrrol-2-yl)-5,6,7,8-tetrahydro[1,2,4]triazolo [4,3-a]pyrazine] | < 0.01
O=C(c1ccc(F)cc1F)N1CCn2c(nnc2-c2ccccn2)C1 [Example 78, 7-[(2,4-difluorophenyl)carbonyl]-3-(2-pyridinyl)-5,6,7,8-tetrahydro[1,2,4]triazolo [4,3-a]pyrazine] | < 0.1
O=C(c1cccc(C(F)(F)F)c1Cl)N1CCn2c(nnc2-c2ccncn2)C1 [Example 12, 7-{[2-chloro-3-(trifluoromethyl)phenyl]carbonyl}-3-(4-pyrimidinyl)-5,6,7,8-tetrahydro[1,2,4]triazolo[4,3-a]pyrazine] | < 0.1
O=C(c1ccccc1Cl)N1CCn2c(nnc2-c2ccccn2)C1 [Example 75, 7-[(2-chlorophenyl)carbonyl]-3-(2-pyridinyl)-5,6,7,8-tetrahydro[1,2,4]triazolo [4,3-a]pyrazine] | < 0.1
O=C(c1cccc(C(F)(F)F)c1Cl)N1CCn2c(nnc2-c2ccncc2)C1 [Example 10, 7-{[2-Chloro-3-(trifluoromethyl)phenyl]carbonyl}-3-(4-pyridinyl)-5,6,7,8-tetrahydro[1,2,4]triazolo[4,3-a]pyrazine] | < 0.1
CCc1nnc2n1CCN(C(=O)c1cccc(Cl)c1Cl)C2 [Example 5, 7-[(2,3-dichlorophenyl)carbonyl]-3-ethyl-5,6,7,8-tetrahydro[1,2,4]triazolo [4,3-a]pyrazine] | < 0.1
Cc1ncccc1-c1nnc2n1CCN(C(=O)c1cccc(Cl)c1Cl)C2 [Example 73, 7-[(2,3-dichlorophenyl)carbonyl]-3-(2-methyl-3-pyridinyl)-5,6,7,8-tetrahydro[1,2,4]triazolo [4,3-a]pyrazine] | < 0.1
O=C(c1cccc(C(F)(F)F)c1Cl)N1CCn2c(nnc2N2CCOCC2)C1 [Example 18, 7-{[2-Chloro-3-(trifluoromethyl)phenyl]carbonyl}-3-(4-morpholinyl)-5,6,7,8-tetrahydro[1,2,4]triazolo[4,3-a]pyrazine] | < 0.501
COc1nnc2n1CCN(C(=O)c1cccc(C(F)(F)F)c1Cl)C2 [Example 17, 7-{[2-Chloro-3-(trifluoromethyl)phenyl]carbonyl}-3-(methyloxy)-5,6,7,8-tetrahydro[1,2,4]triazolo[4,3-a]pyrazine] | < 0.1
O=C(c1ccc(Cl)c(C(F)(F)F)c1)N1CCn2c(nnc2-c2cnccn2)C1 [Example 104, 7-{[4-chloro-3-(trifluoromethyl)phenyl]carbonyl}-3-(2-pyrazinyl)-5,6,7,8-tetrahydro[1,2,4]triazolo [4,3-a]pyrazine] | < 0.1
O=C(c1cccc(C(F)(F)F)c1Cl)N1CCn2c(nnc2-c2ncccc2F)C1 [Example 52, 7-{[2-chloro-3-(trifluoromethyl)phenyl]carbonyl}-3-(3-fluoro-2-pyridinyl)-5,6,7,8-tetrahydro[1,2,4]triazolo [4,3-a]pyrazine] | < 0.01
